One assay deals with pancreas carcinoma cells. In words: Microscopy-based siRNA screen for DNA damage in pancreas carcinoma cells. As to conditions: siRNA hits, low concentration of ATR inhibitor. The assay is classed as cell-based. The text has this: FIG. 1. […] Similar assays (not shown) establish that CDK12 acts downstream of PAF1 in this pathway. e: DNA damage and colony assays in response to combined inhibition of CDK12 and ATR.
Targeting the mechanisms that resolve TRCs is considered a viable strategy to inflict tumor cell-specific DNA damage and/or to sensitize tumors to immune cell-mediated killing. Several of the mechanisms described herein appear to be specific for MYCN-driven tumors. For example, (c-)MYC (herein also just “MYC”) binds only very weakly to Aurora-A (Dauch, Nat Med 22, 2016, 744-53). Therefore, pathways have been identified that resolve TRCs in models of MYC driven tumors, which encompasses the vast majority of all tumors. Specifically, there was a focus on conflicts in a cell line established from the KPC model of pancreas carcinoma (Hingorani, loc.cit.). This reflects human PDAC. In this model, an siRNA screen of 86 candidate genes was performed using several parallel microscope-based assays to measure the occurrence of TRCs (FIG. 1).

Assay [1] has as its target Aurora-A alleles, T217D and T217E (Homo sapiens, UniProt O14965, T217D). Conditions: cited from earlier work.
In a further assay the test system is phosphoKap1. Put plainly: EdU incorporation/Hoechst plots with phosphoKap1 staining (DNA damage in S-phase). In kind it is cell-based. As to conditions: b279: in conjunction with ATR inhibition. An excerpt: (§1) Deregulation of the WNT pathway in CRC not only deregulates transcription by RNAPII, but also by RNA polymerase I, which transcribes ribosomal RNAs in the nucleolus; this leads to enhanced synthesis of ribosomal RNA (Morral, Cell stem cell 26, 2020, 845-61). This is mediated by a beta-catenin dependent upregulation of multiple components of the ribosomal RNA synthesis machinery (FIG. 4a). Further to these observations, the effect of CX-5461, an inhibitor of RNA polymerase I transcription on the growth of CRC metastases, was analyzed. […] This observation was confirmed. […] Since there is an ongoing debate on the primary mechanism of CX-5461 action (Bruno, PNAS 117, 2020, 4053-60; Sanij, Nat Commun 11, 2020, 2641; Xu, Nat Commun 8, 2017, 14432), genetic work to validate its precise mechanism of action, and to further confirm that combining POL1 and ATR inhibition is a valid strategy to induce TRCs, is performed.

A further assay has as its system RPA194 and RAD9. Put plainly: Proximity ligation assays for RPA194 and RAD9. In kind it is cell-based.
Excerpt: as §1

A further assay relates to human CRC cell lines. In words: Colony assays of CRC cells in culture. As to conditions: low concentrations of CX-5461 combined with ATR inhibitor (AZD6738); p53-independent. In kind it is cell-based.
Excerpt: as §1

In another assay the test system is murine CRC organoids. Put plainly: Growth of CRC organoids, CX-5461 plus ATR inhibitor. The assay is classed as cell-based. As to conditions: low concentrations of CX-5461 combined with ATR inhibitor (AZD6738).
Excerpt: as §1

The next assay has as its system CDK12 kinase. Conditions: cited from earlier work.
For the next assay, the system named is MYC protein. In words: Immunoblot of MYC protein in human tumor cells. The assay is classed as cell-based. Conditions: 24 h treatment. As to the method: FIG. 14. […] A: Immunoblot of tumor cells after 24 h treatment with Cymarin. B: Quantification of MYC protein levels in human pancreatic tumor cells and colorectal tumor cells.
(§2) After treatment for 24 h, cells were harvested in RIPA buffer containing protease and phosphatase inhibitor cocktails. The protein concentration was determined using BCA or Bradford assay. 15 μg of protein was loaded on a 10% SDS gel. After electrophoresis, proteins were transferred to 0.45 μm PVDF membrane and incubated with primary antibodies at 4° C. overnight. The signal was detected using peroxidase-conjugated species-specific secondary antibodies and visualized at LAS-4000 Luminescent Image Analyzer (Fujifilm).
An immunoblot of tumor cells after 24 h treatment with cymarin was made (FIG. 14A). Quantification of MYC protein levels in human pancreatic tumor cells and colorectal tumor cells was performed (FIG. 14B).

The next assay has as its system MYC. In words: MYC expression in cells with ectopic expression of murine ATP1A1. The assay is classed as cell-based. As to the method:
FIG. 15. The effect of CG on MYC protein levels is mediated by inhibition of the NA/K pump. A: Depletion of the ATP1A1 subunit of the NA/K pump leads to the reduction of MYC protein levels. B: Ectopic expression of murine ATP1A1 renders the expression of MYC insensitive from the addition of cymarin, a prototypical KG.
as §2
Further, it was shown that the depletion of the ATP1A1 subunit of the NA/K pump leads to the reduction of MYC protein levels (FIG. 15A).

In assay [2] the test system is human LS174 colo-rectal tumor cells. In words: Extracellular acidification rate (lactate secretion), Seahorse XF96. The assay is classed as cell-based.

Each structure is given as a SMILES string. “Also recorded” adds a separate entry of the source.

Sequence of Aurora-A alleles, T217D and T217E (O14965 whole entry T217D): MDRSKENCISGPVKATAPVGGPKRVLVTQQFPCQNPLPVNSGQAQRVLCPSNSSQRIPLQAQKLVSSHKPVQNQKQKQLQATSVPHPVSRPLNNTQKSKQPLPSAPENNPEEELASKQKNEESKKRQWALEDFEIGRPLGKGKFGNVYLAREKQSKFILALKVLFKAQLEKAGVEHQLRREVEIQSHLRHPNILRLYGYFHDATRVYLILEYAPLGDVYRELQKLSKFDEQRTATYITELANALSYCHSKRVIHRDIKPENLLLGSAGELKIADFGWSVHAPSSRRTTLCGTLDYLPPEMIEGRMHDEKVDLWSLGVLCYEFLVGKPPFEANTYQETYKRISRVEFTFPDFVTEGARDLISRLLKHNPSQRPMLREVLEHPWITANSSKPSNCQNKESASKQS

`C[C@@H]1COCCN1c1cc(C2([S@](C)(=N)=O)CC2)nc(-c2cc[nH]c3nccc2-3)n1` [AZD6738]: the DNA damage result with pancreas carcinoma cells is reported as “strongly increased DNA damage”.

As to `COc1cc(Nc2ncc3c(n2)-c2ccc(Cl)cc2C(c2c(F)cccc2OC)=NC3)ccc1C(=O)O` [Alisertib], in assay [1], the resistance of cells entry is given as “resistant”.

For the compound `Cc1cnc(CNC(=O)c2c(=O)c3ccc(N4CCCN(C)CC4)nc3n3c2sc2ccccc23)cn1` [CX-5461], the “DNA damage during DNA replication (S-phase)” value with phosphoKap1 is “induction of DNA damage; also recorded: massive DNA damage”. Also, the “conflicts with DNA replication: proximity between RPA194 and RAD9” value in the assay on RPA194 and RAD9 is reported as “increased proximity”. Also, in the assay with human CRC cell lines, the colony formation entry is on record as “suppression of growth; also recorded: almost completely suppressed”. Moreover, in the assay on murine CRC organoids, the “colony formation / growth of organoids” value was “suppression of growth; also recorded: almost completely suppressed”.

Regarding `Cn1cc(-n2cnc3c(NCc4nc5cc(Cl)c(Cl)cc5[nH]4)nc(N4CCOCC4)nc32)cn1` [SR4835], the “inhibition of the CDK12 kinase” value in the assay on CDK12 kinase is “specific and potent inhibitor”.

Take `CO[C@H]1C[C@H](O[C@H]2CC[C@]3(C=O)[C@H]4CC[C@]5(C)[C@@H](C6=CC(=O)OC6)CC[C@]5(O)[C@@H]4CC[C@]3(O)C2)O[C@H](C)[C@H]1O` [cymarin, Cymarin]: the “amount of MYC protein” value in the assay with MYC protein is on record as “reduce the amount of MYC protein”. Also, the “expression of MYC on addition of cymarin” value in the assay on MYC is listed as “insensitive”. For the same compound, in [2] (LS174 cells), the “extracellular acidification rate (lactate secretion)” value is “significantly reduced”. Also, the “effect on extracellular acidification rate” value in assay [2] (overexpression of the murine 1 isoform of Na+/K+-ATPase) is listed as “can be reduced”.

The values above are taken from patent US20250295693A1, “HYBRID TUMOR/CANCER THERAPY BASED ON TARGETING THE RESOLUTION OF OR INDUCING TRANSCRIPTION-REPLICATION CONFLICTS (TRCS)” (Julius-Maximilians-Universität Würzburg, priority 2021, published 2025).
